Usually T/C stands for the result in the treated group divided by that in the control group, in per cent.

The text below walks through data of ChEMBL document CHEMBL1135507, “II. Synthesis and biological evaluation of some bioisosteres and congeners of the antitumor agent, 2-(4-[(7-chloro-2-quinoxalinyl)oxy]phenoxy)propionic acid (XK469)” (2002).

The nature of assay [1]: In vitro cytotoxicity against resistant mammary adenocarcinoma-17/adr(M17/adr) after the administration of 7 injections (iv) at a dose of 455 (mg/kg) in 3 Mice. The assay is classed as functional, Mus musculus.
Assay [2] deals with Mus musculus. Description: […] cytotoxicity against resistant mammary adenocarcinoma-17/adr(M17/adr) after the administration of 7 injections (iv) at a dose of 455 (mg/kg); Activity value is none. The assay is classed as functional, organism-based.
Assay [3] can be described thus: In vitro cytotoxicity against resistant mammary adenocarcinoma-17/adr(M17/adr) after the administration of 7 injections (iv) at a dose of 455 (mg/kg). It is filed as functional, Mus musculus.
The test system of assay [4] is Mus musculus. The assay can be described thus: […] cytotoxicity against advanced stage pancreatic ductal adenocarcinoma 03 after the administration of 7 injections (iv) at a dose of 560(mg/kg) in 7 Mice. The assay is classed as functional.
The test system of assay [5] is Mus musculus. Description: […] cytotoxicity against advanced stage pancreatic ductal adenocarcinoma 03 after the administration of 7 injections (iv) at a dose of 560(mg/kg). The assay is classed as functional.
A short description of assay [6]: […] cytotoxicity against resistant mammary adenocarcinoma-17/adr(M17/adr) after the administration (iv) of 13 injections at a dose of 364(mg/kg) in 5 Mice. The assay is classed as functional, Mus musculus.
The nature of assay [7]: […] cytotoxicity against resistant mammary adenocarcinoma-17/adr(M17/adr) after the administration (iv) of 13 injections at a dose of 364(mg/kg). The assay is classed as functional, Mus musculus.
Assay [8] can be described thus: In vitro cytotoxicity against resistant mammary adenocarcinoma-17/adr(M17/adr) after the administration of 6 injections (iv) at a dose of 352(mg/kg) in 5 Mice. It is filed as functional, Mus musculus.
Assay [9] can be described thus: In vitro cytotoxicity against resistant mammary adenocarcinoma-17/adr(M17/adr) after the administration of 6 injections (iv) at a dose of 352(mg/kg). The assay is classed as functional, Mus musculus.
The subject of assay [10] is Mus musculus. The assay can be described thus: […] cytotoxicity against advanced stage pancreatic ductal adenocarcinoma 03 after the administration of 6 injections (iv) at a dose of 480 (mg/kg) in 4 Mice. It is filed as functional.
In assay [11] the test system is Mus musculus. The assay can be described thus: […] cytotoxicity against advanced stage pancreatic ductal adenocarcinoma 03 after the administration of 6 injections (iv) at a dose of 480 (mg/kg). It is filed as functional.
Assay [12] is described as follows: In vitro cytotoxicity against resistant mammary adenocarcinoma-17/adr(M17/adr) after the administration of 7 injections (iv) at a dose of 370 (mg/kg) in 5 Mice. The assay is classed as functional, Mus musculus.
Assay [13] can be described thus: In vitro cytotoxicity against resistant mammary adenocarcinoma-17/adr(M17/adr) after the administration of 7 injections (iv) at a dose of 370 (mg/kg). It is filed as functional, Mus musculus.
Assay [14] in a line: […] cytotoxicity against resistant mammary adenocarcinoma-17/adr(M17/adr) after the administration of 6 injections (iv) at a dose of 450 (mg/kg) in 5 Mice. It is filed as functional, Mus musculus.
Assay [15] can be described thus: In vitro cytotoxicity against resistant mammary adenocarcinoma-17/adr(M17/adr) after the administration of 6 injections (iv) at a dose of 450 (mg/kg). It is filed as functional, Mus musculus.
The nature of assay [16]: In vitro cytotoxicity against resistant mammary adenocarcinoma-17/adr(M17/adr) after the administration of 7 injections (iv) at a dose of 324(mg/kg) in 5 Mice. It is filed as functional, Mus musculus.
A short description of assay [17]: In vitro cytotoxicity against resistant mammary adenocarcinoma-17/adr(M17/adr) after the administration of 7 injections (iv) at a dose of 324(mg/kg). The assay is classed as functional, Mus musculus.
Assay [18] can be described thus: In vitro cytotoxicity against resistant mammary adenocarcinoma-17/adr(M17/adr) after the administration of 7 injections (iv) at a dose of 462 (mg/kg) in 4 Mice. It is filed as functional, Mus musculus.
The subject of assay [19] is Mus musculus. The assay can be described thus: […] cytotoxicity against resistant mammary adenocarcinoma-17/adr(M17/adr) after the administration of 7 injections (iv) at a dose of 462 (mg/kg);Activity value is none. The assay is classed as functional, organism-based.
The nature of assay [20]: […] cytotoxicity against resistant mammary adenocarcinoma-17/adr(M17/adr) after the administration of 7 injections (iv) at a dose of 462 (mg/kg). The assay is classed as functional, Mus musculus.
In assay [21] the test system is Mus musculus. The assay can be described thus: […] cytotoxicity against advanced stage pancreatic ductal adenocarcinoma 03 after the administration of 5 injections (iv) at a dose of 450 (mg/kg) in 5 mice. The assay is classed as functional.
Assay [22] relates to Mus musculus. Description: […] cytotoxicity against advanced stage pancreatic ductal adenocarcinoma 03 after the administration of 5 injections (iv) at a dose of 450 (mg/kg). It is filed as functional.
The test system of assay [23] is Mus musculus. Description: […] cytotoxicity against advanced stage pancreatic ductal adenocarcinoma 03 after the administration of 5 injections (iv) at a dose of 450 (mg/kg) in 5 Mice. The assay is classed as functional.
Assay [24] in a line: In vitro cytotoxicity against resistant mammary adenocarcinoma-17/adr(M17/adr) after the administration of 6 injections (iv) at a dose of 300 mg/kg in 5 Mice. It is filed as functional, Mus musculus.
A short description of assay [25]: In vitro cytotoxicity against resistant mammary adenocarcinoma-17/adr(M17/adr) after the administration of 6 injections (iv) at a dose of 300 mg/kg. The assay is classed as functional, Mus musculus.
Assay [26] deals with Mus musculus. Description: […] cytotoxicity against advanced stage pancreatic ductal adenocarcinoma 03 after the administration of 7 injections (iv) at a dose of 336(mg/kg) in 5 Mice. The assay is classed as functional.
In assay [27] the test system is Mus musculus. Description: […] cytotoxicity against advanced stage pancreatic ductal adenocarcinoma 03 after the administration of 7 injections (iv) at a dose of 336(mg/kg). It is filed as functional.

The source made the active and inactive calls. No cut-off for these calls is given here.

For `CC(Oc1ccc(Oc2nc3ccc(Cl)cc3o2)cc1)C(=O)O` (racemic) [FENOXAPROP], in [1], the Cures is given as 0 and the Drug deaths was 0. Also, the “Log tumor cell kill” value in the assay on Mus musculus [2] is “inactive”. In addition, in assay [3], the Activity rating is less than 0.7, the “Body weight loss at nadir” value is 0% and the T/C is recorded as greater than 100%.

With `CC(Oc1ccc(Oc2cnc3ccc(Cl)cc3n2)cc1)C(=O)O` (stereo not drawn), in the assay on Mus musculus [4], the Cures is recorded as 0 and the Drug deaths came out at 0. In the assay with Mus musculus [5], the Activity rating came out at 2.8, the “Body weight loss at nadir” value was 2.5%, the “Log tumor cell kill” value stood at 2 and the T/C is recorded as 24.5%.

In the assay with Mus musculus [4], `CC(Oc1ccc(Oc2ccc3ccc(Cl)cc3n2)cc1)C(=O)O` (stereo not drawn) displayed a Cures of 0 and a Drug deaths of 0. In addition, in the assay with Mus musculus [5], the Activity rating was 2.8, the “Body weight loss at nadir” value was found to be 3.7%, the “Log tumor cell kill” value is recorded as 2.3 and the T/C worked out at 14.1%.

In assay [6], `CC(Oc1ccc(Oc2cnc3ccc(Cl)cc3n2)cc1)C(=O)O` (racemic) came in with a Cures of 0 and a Drug deaths of 0. In [7], the Activity rating is on record as greater than 2.8, the “Body weight loss at nadir” value was determined as 0%, the “Log tumor cell kill” value was found to be 2.82 and the T/C is 10.3%.

In assay [8], `CC(Oc1ccc(Oc2ccc3ccc(Br)cc3n2)cc1)C(=O)O` (racemic) displayed a Cures of 0 and a Drug deaths of 0. For the same compound, in assay [9], the Activity rating is reported as greater than 2.8, the “Body weight loss at nadir” value is reported as -5.5%, the “Log tumor cell kill” value is given as 4.2 and the T/C is 0%.

In the assay with Mus musculus [10], `CC(Oc1ccc(Oc2ccc3ccc(Br)cc3n2)cc1)C(=O)O` (stereo not drawn) registered a Cures of 0 and a Drug deaths of 0. Further, in the assay on Mus musculus [11], the Activity rating is recorded as greater than 2.8, the “Body weight loss at nadir” value stood at 5.9%, the “Log tumor cell kill” value worked out at 3.1 and the T/C came to 2.8%.

In the case of `CC(Oc1ccc(Oc2ccc3ccc(I)cc3n2)cc1)C(=O)O` (racemic), in assay [12], the Cures is on record as 0 and the Drug deaths was 0. Moreover, in assay [13], the Activity rating is 1.9, the “Body weight loss at nadir” value is -4%, the “Log tumor cell kill” value came to 2.1 and the T/C was determined as 2%.

Consider `COc1ccc2ccc(Oc3ccc(OC(C)C(=O)O)cc3)nc2c1` (stereo not drawn), for which, in assay [14], the Cures is given as 0 and the Drug deaths came to 0. In [15], the Activity rating was greater than 2.8, the “Body weight loss at nadir” value is listed as -5%, the “Log tumor cell kill” value was 3 and the T/C stood at 0%.

Regarding `CC(Oc1ccc(Oc2ccc3ccc(F)cc3n2)cc1)C(=O)O` (racemic), in assay [16], the Cures is 0 and the Drug deaths was 0. In assay [17], the Activity rating is recorded as 1.9, the “Body weight loss at nadir” value was -1.6%, the “Log tumor cell kill” value amounted to 1.5 and the T/C is 14%.

In assay [18], `CC(Oc1ccc(Oc2nc3cc(Cl)ccc3o2)cc1)C(=O)O` (racemic) came in with a Cures of 0 and a Drug deaths of 0. The “Log tumor cell kill” value with Mus musculus [19] was “inactive”. Moreover, in [20], the Activity rating is given as less than 0.7, the “Body weight loss at nadir” value is listed as -2.3% and the T/C is greater than 100%.

As to `COc1ccc2ccc(Oc3ccc(OC(C)C(=O)O)cc3)nc2c1` (racemic), the Cures with Mus musculus [21] amounted to 0. Moreover, in the assay with Mus musculus [22], the Activity rating came to 1.2, the “Body weight loss at nadir” value was -2%, the “Log tumor cell kill” value came to 0.8 and the T/C came out at 45%. The same compound yielded a Drug deaths in the assay with Mus musculus [23] of 0.

In [24], `CC(Oc1ccc(Oc2ccc3ccc(Cl)cc3n2)cc1)C(=O)O` (racemic) showed a Cures of 0 and a Drug deaths of 0. Further, in assay [25], the Activity rating is recorded as greater than 2.8, the “Body weight loss at nadir” value was -10.6%, the “Log tumor cell kill” value is 3.8 and the T/C worked out at 0%. In the assay on Mus musculus [26], this compound registered a Cures of 0 and a Drug deaths of 0. Also, in the assay on Mus musculus [27], the Activity rating stood at 2.8, the “Body weight loss at nadir” value is given as -8.9%, the “Log tumor cell kill” value is 2.6 and the T/C is reported as 0%.
